# From US9365523B2, “Imidazolyl amide compounds and uses related thereto” (priority 2011, dated 2016)
# Key:
# MeV-Alaska [1] = test: Viral CPE-reduction assay; details: Measles morbillivirus, read-out: EC50, suppression of viral cytopathic effect (CPE), CPE
# Method: To rapidly pre-screen small libraries of compound analogs for antiviral activity, Vero-SLAM cells were infected with MeV-Alaska in four replicates per compound concentration in a 96-well plate format at an MOI of 0.4 pfu/cell in the presence of the inhibitor analyzed ranging from 75 μM to 293 nM in two-fold dilutions. At 96 hours post-infection, cell monolayers were subjected to crystal violet staining (0.1% crystal violet in 20% ethanol), and the absorbance of dried plates at 560 nm determined. Virus-induced cytopathicity was then calculated according to the formula [% rel. CPE=100-(experimental-minimum)/(maximum-minimum)*100], with minimum referring to infected, vehicle-treated wells and maximum to mock-infected wells.
# MeV-Alaska [2] = test: Virus yield reduction assay, MeV; type: cell-based, measles virus; details: Measles morbillivirus
# influenza A/WSN (H1N1) = test: microbe, parasite or virus in culture; type: cell-based; details: read-out: EC50, reduction of virus yield (WSN)
# HPIV3 = test: Virus yield reduction assay, HPIV3; type: cell-based, human parainfluenzavirus type 3; details: Human respirovirus 3
SMILES,EC50 (MeV-Alaska [1]),EC50 (influenza A/WSN (H1N1)),other results
Cc1ccc(NC(=O)C(C)Sc2nc3ccccc3n2CCN2CCOCC2)c(Cl)c1 (centres unmarked),4850 nM,–,–
Cc1ccc(NC(=O)C(C)Sc2nc3ccccc3n2CCN2CCN(C(=O)OC(C)(C)C)CC2)c(Cl)c1 (centres unmarked),1320 nM,–,–
Cc1ccc(NC(=O)C(C)Sc2nc3ccccc3n2CC2CCN(C(C)c3ccc(F)cc3)CC2)c(Cl)c1 (centres unmarked),1170 nM,–,–
Cc1ccc(NC(=O)C(C)Sc2nc3ccccc3n2CCN2CCNCC2)c(Cl)c1 (centres unmarked),> 75000 nM,–,–
Cc1ccc(NC(=O)C(C)Sc2nc3ccccc3n2CCN2CCN(C(C)c3ccc(F)cc3)CC2)c(Cl)c1 (centres unmarked),2170 nM,–,–
Cc1ccc(NC(=O)C(C)Sc2nc3ccccc3n2CC2CCN(Cc3ccc(F)cc3)CC2)c(Cl)c1 (centres unmarked),1180 nM,–,–
Cc1ccc(NC(=O)C(C)Sc2nc3ccccc3n2[C@H]2CC[C@H](O)CC2)c(Cl)c1 (some centres unmarked),2740 nM,–,–
Cc1ccc(NC(=O)C(C)Sc2nc3ccccc3n2[C@H]2CCCC[C@@H]2O)c(Cl)c1 (some centres unmarked),872 nM,–,–
Cc1ccc(NC(=O)C(C)Sc2nc3ccccc3n2-c2cccc(CCN3CCCCC3)c2)c(Cl)c1 (centres unmarked),1520 nM,–,–
Cc1ccc(NC(=O)C(C)Sc2nc3ccccc3n2-c2cccc(CCN3CCCC3)c2)c(Cl)c1 (centres unmarked),1660 nM,–,–
Cc1ccc(NC(=O)C(C)Sc2nc3ccccc3n2-c2cccc(CCN(C)C)c2)c(Cl)c1 (centres unmarked),1220 nM,–,–
CCN1CCC(Cn2c(SC(C)C(=O)Nc3ccc(C)cc3Cl)nc3ccccc32)CC1 (centres unmarked),> 75000 nM,–,–
CCN1CCN(CCn2c(SC(C)C(=O)Nc3ccc(C)cc3Cl)nc3ccccc32)CC1 (centres unmarked),18800 nM,–,–
Cc1ccc(NC(=O)C(C)Sc2nc3ccccc3n2C2CC[N+](C)(C)CC2)c(Cl)c1 (centres unmarked),> 75000 nM,–,–
COc1ccc(-n2c(S[C@@H](C)C(=O)Nc3ccc(C)cc3Cl)nc3ccccc32)cc1,–,5 nM,EC50 (MeV-Alaska [2]; MeV): 37.3 nM; EC50 (HPIV3): 80 nM
COc1ccc(-n2c(S[C@H](C)C(=O)Nc3ccc(C)cc3Cl)nc3ccccc32)cc1,–,157 nM,EC50 (MeV-Alaska [2]): 879 nM
Cc1ccc(NC(=O)C(C)Sc2nc3ccccc3n2-c2cccc(CCN3CCOCC3)c2)c(Cl)c1 (centres unmarked),–,0.3 nM,EC50 (MeV-Alaska [2]): 12.9 nM
Cc1ccc(NC(=O)[C@H](C)Sc2nc3ccccc3n2-c2cccc(CCN3CCOCC3)c2)c(Cl)c1,–,1.5 nM,EC50 (MeV-Alaska [2]; MeV): 10.8 nM; EC50 (HPIV3): 16 nM
Cc1ccc(NC(=O)[C@@H](C)Sc2nc3ccccc3n2-c2cccc(CCN3CCOCC3)c2)c(Cl)c1,–,108 nM,EC50 (MeV-Alaska [2]): 212 nM
Cc1ccc(NC(=O)[C@H](C)Sc2nc3ccccc3n2-c2ccccc2CN2CCN(C)CC2)c(Cl)c1,–,4 nM,EC50 (MeV-Alaska [2]; MeV): 685 nM; EC50 (HPIV3): 16 nM
Cc1ccc(NC(=O)[C@@H](C)Sc2nc3ccccc3n2-c2ccccc2CN2CCN(C)CC2)c(Cl)c1,–,120 nM,EC50 (MeV-Alaska [2]): 466 nM
Cc1ccc(NC(=O)C(C)Sc2nc3ccccc3n2-c2ccc(CCN3CCOCC3)cc2)c(Cl)c1 (centres unmarked),–,43 nM,EC50 (MeV-Alaska [2]): 111 nM
Cc1ccc(NC(=O)[C@@H](C)Sc2nc3ccccc3n2-c2ccc(CCN3CCOCC3)cc2)c(Cl)c1,–,117 nM,EC50 (MeV-Alaska [2]): 527 nM
